In the kinase profiling compilation of Christmann-Franck et al. (2016):

Key:
Assay in all cases: KINOMEscan competition binding
Details in all cases: compound 10.0 µM
GAK (human) = GAK (human) (UniProt O14976)
PLK4 (human) = PLK4 (human) (UniProt O00444)
ROS1 (human) = ROS1 (human) (UniProt P08922)
[1] = system: ABL1 (human), P00519 [F317I]
PIK3CG (human) = PIK3CG (human) (UniProt P48736)
FRK (human) = FRK (human) (UniProt P42685)
AURKC (human) = AURKC (human) (UniProt Q9UQB9)
PLK1 (human) = PLK1 (human) (UniProt P53350)
TNK1 (human) = TNK1 (human) (UniProt Q13470)
STK33 (human) = STK33 (human) (UniProt Q9BYT3)
PTK2B (human) = PTK2B (human) (UniProt Q14289)
FGFR4 (human) = FGFR4 (human) (UniProt P22455)
ULK1 (human) = ULK1 (human) (UniProt O75385)
MKNK2 (human) = MKNK2 (human) (UniProt Q9HBH9)
AURKA (human) = AURKA (human) (UniProt O14965)
TAOK1 (human) = TAOK1 (human) (UniProt Q7L7X3)
TTK (human) = TTK (human) (UniProt P33981)
PTK2 (human) = PTK2 (human) (UniProt Q05397)
[2] = system: ABL1 (human), P00519 [F317L]
DCLK2 (human) = DCLK2 (human) (UniProt Q8N568)
TAOK3 (human) = TAOK3 (human) (UniProt Q9H2K8)
RPS6KA6 KD2 (human) = RPS6KA6 KD2 (human) (UniProt Q9UK32)
ULK2 (human) = ULK2 (human) (UniProt Q8IYT8)
CSF1R (human) = CSF1R (human) (UniProt P07333)
DCLK1 (human) = DCLK1 (human) (UniProt O15075)
NUAK1 (human) = NUAK1 (human) (UniProt O60285)
CAMK2D (human) = CAMK2D (human) (UniProt Q13557)
RPS6KA2 KD2 (human) = RPS6KA2 KD2 (human) (UniProt Q15349)
PRKD1 (human) = PRKD1 (human) (UniProt Q15139)
PTK6 (human) = PTK6 (human) (UniProt Q13882)
CAMKK2 (human) = CAMKK2 (human) (UniProt Q96RR4)
TNK2 (human) = TNK2 (human) (UniProt Q07912)
FER (human) = FER (human) (UniProt P16591)
MAPK7 (human) = MAPK7 (human) (UniProt Q13164)
ALK (human) = ALK (human) (UniProt Q9UM73)
RPS6KA1 KD2 (human) = RPS6KA1 KD2 (human) (UniProt Q15418)
MYLK (human) = MYLK (human) (UniProt Q15746)

Chain of ABL1 (human), P00519 [F317L] (P00519 whole entry F317L, looked up): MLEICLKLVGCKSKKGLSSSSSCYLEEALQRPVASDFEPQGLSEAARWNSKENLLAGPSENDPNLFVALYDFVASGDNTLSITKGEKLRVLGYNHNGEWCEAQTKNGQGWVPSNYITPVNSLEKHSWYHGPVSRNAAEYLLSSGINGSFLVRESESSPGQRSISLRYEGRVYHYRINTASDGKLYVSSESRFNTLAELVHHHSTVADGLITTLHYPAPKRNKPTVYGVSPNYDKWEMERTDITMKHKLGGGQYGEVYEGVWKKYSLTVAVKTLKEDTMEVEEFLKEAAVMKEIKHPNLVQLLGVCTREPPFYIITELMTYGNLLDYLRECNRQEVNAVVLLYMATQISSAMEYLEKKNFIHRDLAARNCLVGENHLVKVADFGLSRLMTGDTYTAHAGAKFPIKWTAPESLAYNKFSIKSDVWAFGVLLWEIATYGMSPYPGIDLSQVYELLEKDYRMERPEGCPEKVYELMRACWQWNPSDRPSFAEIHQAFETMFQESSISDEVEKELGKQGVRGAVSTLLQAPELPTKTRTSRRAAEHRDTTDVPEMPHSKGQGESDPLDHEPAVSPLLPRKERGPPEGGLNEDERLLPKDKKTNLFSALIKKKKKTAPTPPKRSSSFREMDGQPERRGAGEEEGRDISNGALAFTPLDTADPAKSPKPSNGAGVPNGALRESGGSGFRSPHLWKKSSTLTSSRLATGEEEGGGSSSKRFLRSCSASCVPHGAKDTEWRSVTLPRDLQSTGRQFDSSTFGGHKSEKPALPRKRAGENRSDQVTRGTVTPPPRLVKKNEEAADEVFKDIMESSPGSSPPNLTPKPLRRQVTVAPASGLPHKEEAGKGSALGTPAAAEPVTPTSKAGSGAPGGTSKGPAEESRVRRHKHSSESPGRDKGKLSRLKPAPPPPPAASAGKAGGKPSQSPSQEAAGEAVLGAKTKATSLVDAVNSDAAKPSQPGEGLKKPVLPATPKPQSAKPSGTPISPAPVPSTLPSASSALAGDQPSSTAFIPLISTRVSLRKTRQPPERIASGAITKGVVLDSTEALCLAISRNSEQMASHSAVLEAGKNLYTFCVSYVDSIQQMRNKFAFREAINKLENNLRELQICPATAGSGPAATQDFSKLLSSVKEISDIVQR
Chain of MKNK2 (human) (Q9HBH9 whole entry, looked up): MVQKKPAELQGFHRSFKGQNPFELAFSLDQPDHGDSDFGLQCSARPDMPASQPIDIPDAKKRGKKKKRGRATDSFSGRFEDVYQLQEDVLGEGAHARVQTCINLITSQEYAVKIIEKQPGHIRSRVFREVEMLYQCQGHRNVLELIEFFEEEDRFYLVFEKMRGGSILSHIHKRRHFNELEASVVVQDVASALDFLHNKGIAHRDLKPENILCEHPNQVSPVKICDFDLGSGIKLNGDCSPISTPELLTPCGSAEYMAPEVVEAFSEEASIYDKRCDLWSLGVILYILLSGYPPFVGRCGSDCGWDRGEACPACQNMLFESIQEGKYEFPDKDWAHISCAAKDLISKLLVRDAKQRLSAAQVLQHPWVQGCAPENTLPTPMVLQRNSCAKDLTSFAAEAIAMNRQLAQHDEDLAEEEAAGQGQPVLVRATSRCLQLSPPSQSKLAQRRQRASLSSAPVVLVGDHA
Chain of PLK1 (human) (P53350 whole entry, looked up): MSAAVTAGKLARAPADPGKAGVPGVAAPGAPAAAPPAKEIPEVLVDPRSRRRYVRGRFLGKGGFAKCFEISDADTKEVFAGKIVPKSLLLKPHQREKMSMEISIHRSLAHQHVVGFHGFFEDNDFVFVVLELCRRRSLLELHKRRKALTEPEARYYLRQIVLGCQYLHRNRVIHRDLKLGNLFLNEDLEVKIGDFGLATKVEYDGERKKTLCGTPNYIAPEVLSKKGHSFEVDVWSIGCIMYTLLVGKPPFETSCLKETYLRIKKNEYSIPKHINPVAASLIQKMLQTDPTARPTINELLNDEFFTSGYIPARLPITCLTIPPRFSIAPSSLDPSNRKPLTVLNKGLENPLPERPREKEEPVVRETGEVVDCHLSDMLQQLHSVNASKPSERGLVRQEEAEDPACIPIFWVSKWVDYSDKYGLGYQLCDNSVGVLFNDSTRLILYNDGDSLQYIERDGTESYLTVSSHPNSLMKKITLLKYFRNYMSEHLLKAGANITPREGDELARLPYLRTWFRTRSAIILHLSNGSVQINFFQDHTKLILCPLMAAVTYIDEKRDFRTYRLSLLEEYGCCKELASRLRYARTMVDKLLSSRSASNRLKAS
Chain of RPS6KA6 KD2 (human) (Q9UK32 whole entry, looked up): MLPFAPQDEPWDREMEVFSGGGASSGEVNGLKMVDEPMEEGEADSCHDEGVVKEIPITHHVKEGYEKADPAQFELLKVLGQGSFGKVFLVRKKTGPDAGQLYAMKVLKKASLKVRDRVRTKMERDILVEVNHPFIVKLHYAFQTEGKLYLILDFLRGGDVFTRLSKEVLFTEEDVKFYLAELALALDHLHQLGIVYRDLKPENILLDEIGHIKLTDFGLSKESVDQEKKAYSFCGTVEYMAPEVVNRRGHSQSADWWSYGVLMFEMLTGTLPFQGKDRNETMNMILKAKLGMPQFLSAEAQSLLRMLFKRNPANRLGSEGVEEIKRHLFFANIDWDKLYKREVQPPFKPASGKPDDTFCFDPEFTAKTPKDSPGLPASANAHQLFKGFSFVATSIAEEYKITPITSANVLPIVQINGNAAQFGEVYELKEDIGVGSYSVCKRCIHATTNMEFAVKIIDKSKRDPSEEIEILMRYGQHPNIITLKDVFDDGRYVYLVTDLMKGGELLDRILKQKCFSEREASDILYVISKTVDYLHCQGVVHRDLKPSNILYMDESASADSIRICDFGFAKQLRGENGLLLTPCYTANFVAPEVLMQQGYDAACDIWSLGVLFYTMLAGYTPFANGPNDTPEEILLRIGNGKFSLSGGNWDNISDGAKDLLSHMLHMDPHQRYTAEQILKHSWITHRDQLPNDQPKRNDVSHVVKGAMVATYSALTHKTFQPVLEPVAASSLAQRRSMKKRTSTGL
Chain of ALK (human) (Q9UM73 whole entry, looked up): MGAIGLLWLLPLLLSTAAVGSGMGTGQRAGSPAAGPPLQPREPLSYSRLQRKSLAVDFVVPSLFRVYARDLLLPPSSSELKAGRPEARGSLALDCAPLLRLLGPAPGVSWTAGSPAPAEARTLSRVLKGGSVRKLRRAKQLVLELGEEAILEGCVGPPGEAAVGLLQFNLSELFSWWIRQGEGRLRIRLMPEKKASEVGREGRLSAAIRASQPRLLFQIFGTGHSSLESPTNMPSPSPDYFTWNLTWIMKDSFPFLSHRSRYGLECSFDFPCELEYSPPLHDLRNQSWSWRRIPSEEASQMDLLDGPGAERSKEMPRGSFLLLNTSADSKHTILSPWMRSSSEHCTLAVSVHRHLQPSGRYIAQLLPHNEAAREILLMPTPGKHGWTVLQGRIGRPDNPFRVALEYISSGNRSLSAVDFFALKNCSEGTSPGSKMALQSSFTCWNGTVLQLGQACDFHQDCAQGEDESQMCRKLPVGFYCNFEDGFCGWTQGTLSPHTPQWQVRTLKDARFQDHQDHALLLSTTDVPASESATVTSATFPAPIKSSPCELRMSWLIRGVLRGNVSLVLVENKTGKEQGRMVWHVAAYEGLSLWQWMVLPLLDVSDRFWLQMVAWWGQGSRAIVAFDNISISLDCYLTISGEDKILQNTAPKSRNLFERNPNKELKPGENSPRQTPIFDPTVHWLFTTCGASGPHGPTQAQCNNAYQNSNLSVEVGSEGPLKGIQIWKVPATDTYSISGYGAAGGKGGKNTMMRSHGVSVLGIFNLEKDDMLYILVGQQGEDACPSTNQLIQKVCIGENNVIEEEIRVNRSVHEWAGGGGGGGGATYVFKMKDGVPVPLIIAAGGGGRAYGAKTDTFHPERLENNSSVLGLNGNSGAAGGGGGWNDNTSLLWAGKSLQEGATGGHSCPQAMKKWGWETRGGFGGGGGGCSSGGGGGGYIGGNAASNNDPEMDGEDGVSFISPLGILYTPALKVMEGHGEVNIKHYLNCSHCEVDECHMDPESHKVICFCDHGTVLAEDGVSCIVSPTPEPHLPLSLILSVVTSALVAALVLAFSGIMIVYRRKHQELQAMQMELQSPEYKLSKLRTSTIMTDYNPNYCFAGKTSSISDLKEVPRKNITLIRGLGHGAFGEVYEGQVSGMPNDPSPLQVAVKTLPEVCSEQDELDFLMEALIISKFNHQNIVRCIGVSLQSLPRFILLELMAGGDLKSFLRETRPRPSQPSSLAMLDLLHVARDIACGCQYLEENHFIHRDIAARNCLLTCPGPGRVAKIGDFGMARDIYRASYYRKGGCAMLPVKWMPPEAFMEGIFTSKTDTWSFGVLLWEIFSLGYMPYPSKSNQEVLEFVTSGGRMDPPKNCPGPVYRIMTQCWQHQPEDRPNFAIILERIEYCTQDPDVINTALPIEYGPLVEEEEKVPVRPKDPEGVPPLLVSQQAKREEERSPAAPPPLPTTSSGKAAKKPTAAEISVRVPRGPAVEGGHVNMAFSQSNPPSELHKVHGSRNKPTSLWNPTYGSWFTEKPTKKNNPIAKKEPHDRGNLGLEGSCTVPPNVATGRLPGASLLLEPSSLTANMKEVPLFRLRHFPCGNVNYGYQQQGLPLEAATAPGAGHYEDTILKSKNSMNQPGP
Chain of FRK (human) (P42685 whole entry, looked up): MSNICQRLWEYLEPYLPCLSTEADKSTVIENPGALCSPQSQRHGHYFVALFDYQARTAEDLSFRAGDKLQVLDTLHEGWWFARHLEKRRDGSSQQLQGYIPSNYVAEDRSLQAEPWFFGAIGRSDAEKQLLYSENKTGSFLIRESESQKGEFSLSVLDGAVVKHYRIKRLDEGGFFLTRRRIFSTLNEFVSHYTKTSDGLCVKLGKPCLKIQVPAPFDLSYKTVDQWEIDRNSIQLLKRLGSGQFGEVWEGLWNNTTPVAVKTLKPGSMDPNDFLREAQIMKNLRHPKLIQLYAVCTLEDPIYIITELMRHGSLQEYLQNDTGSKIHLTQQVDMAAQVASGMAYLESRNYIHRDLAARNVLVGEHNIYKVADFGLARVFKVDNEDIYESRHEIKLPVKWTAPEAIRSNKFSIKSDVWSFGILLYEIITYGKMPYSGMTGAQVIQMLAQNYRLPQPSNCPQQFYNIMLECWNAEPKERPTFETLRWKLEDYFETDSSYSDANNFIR

SMILES: COc1cc(N2CCC(O)CC2)ccc1Nc1ncc2c(n1)N(C)c1ccccc1C(=O)N2C
- kinase still bound, per cent of control (GAK (human)): 8.5%
- kinase still bound, per cent of control (PLK4 (human)): 5.9%
- kinase still bound, per cent of control (ROS1 (human)): 5.8%
- kinase still bound, per cent of control [1]: 7.4%
- kinase still bound, per cent of control (PIK3CG (human)): 9.3%
- kinase still bound, per cent of control (FRK (human)): 11%
- kinase still bound, per cent of control (AURKC (human)): 15%
- kinase still bound, per cent of control (PLK1 (human)): 5.5%
- kinase still bound, per cent of control (TNK1 (human)): 0.45%
- kinase still bound, per cent of control (STK33 (human)): 19%
- kinase still bound, per cent of control (PTK2B (human)): 29%
- kinase still bound, per cent of control (FGFR4 (human)): 6%
- kinase still bound, per cent of control (ULK1 (human)): 22%
- kinase still bound, per cent of control (MKNK2 (human)): 0%
- kinase still bound, per cent of control (AURKA (human)): 26%
- kinase still bound, per cent of control (TAOK1 (human)): 6.8%
- kinase still bound, per cent of control (TTK (human)): 13%
- kinase still bound, per cent of control (PTK2 (human)): 7.9%
- kinase still bound, per cent of control [2]: 23%
- kinase still bound, per cent of control (DCLK2 (human)): 0.4%
- kinase still bound, per cent of control (TAOK3 (human)): 5.4%
- kinase still bound, per cent of control (RPS6KA6 KD2 (human)): 14%
- kinase still bound, per cent of control (ULK2 (human)): 8.4%
- kinase still bound, per cent of control (CSF1R (human)): 3.2%
- kinase still bound, per cent of control (DCLK1 (human)): 0.55%
- kinase still bound, per cent of control (NUAK1 (human)): 24%
- kinase still bound, per cent of control (CAMK2D (human)): 27%
- kinase still bound, per cent of control (RPS6KA2 KD2 (human)): 27%
- kinase still bound, per cent of control (PRKD1 (human)): 26%
- kinase still bound, per cent of control (PTK6 (human)): 21%
- kinase still bound, per cent of control (CAMKK2 (human)): 15%
- kinase still bound, per cent of control (TNK2 (human)): 1.6%
- kinase still bound, per cent of control (FER (human)): 32%
- kinase still bound, per cent of control (MAPK7 (human)): 0%
- kinase still bound, per cent of control (ALK (human)): 24%
- kinase still bound, per cent of control (RPS6KA1 KD2 (human)): 22%
- kinase still bound, per cent of control (MYLK (human)): 22%
